Results as given in patent US11083737B1, “Methods of administering deflazacort therapy” (PTC Therapeutics, Inc., priority 2016, dated 2021).

Assays:
[1] = Phase 1 open label pharmacokinetic study of oral deflazacort tablets (0.9 mg/kg/day, 8 days) in children and adolescents with DMD; assay type: in vivo, human; details: for geometric mean terminal elimination half-life: Day 1; for time by which plasma concentrations were quantifiable (first post-dose sample): all children and adolescents, Days 1 and 8
Description: FIG. 1 is a line graph illustrating mean plasma 21-desDFZ (active deflazacort metabolite) concentration (ng/mL; y-axis) vs. time (hours; x-axis) overlaid by study population on Day 8 (linear scale; circles=adolescent; triangles=child). Children (ages 5-11, inclusive) and adolescents (ages 12-16, inclusive) were administered the weight-based regimen of 0.9 mg/kg/day deflazacort orally once daily for 8 days. Blood samples were collected through eight hours post-dose. Blood samples were processed to plasma and concentrations of 21-desDFZ were measured using validated bioanalytical assays.
Pharmacokinetic analysis was performed as part of an open label, Phase 1 single-period study. Twenty-six (26) male DMD subjects were enrolled, consisting of children (ages 4 up to 12) and adolescents (ages 12 to 16, inclusive) with at least 12 subjects between the ages of 4 and 12 (children). The primary objective of the study was characterization of the single-dose and steady-state PK of deflazacort and its active deflazacort metabolite (21-desDFZ). The characterization of the PK of the 21-desDFZ metabolite 6β-OH-21-desDFZ was included as a secondary outcome. A total of 24 subjects (16 children and 8 adolescents) received deflazacort tablets (0.9 mg/kg/day) for 8 days. Blood samples for PK profiles were collected on Days 1 and 8. All 24 subjects who completed the study had sufficient data to use in the PK analysis. Plasma 21-desDFZ concentrations were quantifiable by the time of the first post-dose sample collection (0.5 hours) in all children and adolescents on Days 1 and 8. Plasma 21-desDFZ concentrations remained above the limit of quantification in most subjects over the 8-hour sampling window on both study days.

[2] = Applicants' clinical observation of deflazacort in ambulatory and non-ambulatory DMD patients; assay type: in vivo, human; details: as early as six weeks after treatment initiation, preserved up to 24-months
[3] = Day 1, deflazacort 0.9 mg/kg/day orally
[4] = Day 8, deflazacort 0.9 mg/kg/day orally
[5] = Days 1 and 8, deflazacort 0.9 mg/kg/day orally
[6] = after a single oral dose of deflazacort and at steady-state

| Compound | geometric mean Cmax, adolescents relative to children [1, 3] | geometric mean Cmax, adolescents relative to children [1, 4] [fold] | geometric mean AUCinf, adolescents relative to children [1, 5] | geometric mean AUClast, adolescents relative to children [1, 5] | geometric mean terminal elimination half-life ([1]; adolescents) [h] | time by which plasma concentrations were quantifiable (first post-dose sample) [1] [h] | geometric mean terminal elimination half-life ([1]; children) [h] | mean plasma concentration in children as percent of that observed in adolescents ([1]; about one hour following administration, Day 8, deflazacort 0.9 mg/kg/day orally) [%] | clearance (CL/F), children vs adolescents [1, 6] | volume of distribution (Vd/F), children vs adolescents [1, 6] | muscle strength in ambulatory and non-ambulatory patients [2] |
| --- | --- | --- | --- | --- | --- | --- | --- | --- | --- | --- | --- |
| CC1=N[C@]2(C(=O)CO)[C@@H](C[C@H]3[C@@H]4C[C@@H](O)C5=CC(=O)C=C[C@]5(C)[C@H]4[C@@H](O)C[C@@]32C)O1 [6β-OH-21-desDFZ] | roughly 1.25 fold | ~1.30 | roughly 1.25 Fold | roughly 1.25 Fold | 1.72 | ≤ 0.5 | 1.63 |  |  |  |  |
| CC1=N[C@]2(C(=O)CO)[C@@H](C[C@H]3[C@@H]4CCC5=CC(=O)C=C[C@]5(C)[C@H]4[C@@H](O)C[C@@]32C)O1 [21-desDFZ, 21-desacetyldeflazacort] | almost double | 1.5 |  |  | 1.34 | ≤ 0.5 | 1.17 | 67 | no differences | no differences |  |
| CC(=O)OCC(=O)[C@@]12N=C(C)O[C@@H]1C[C@H]1[C@@H]3CCC4=CC(=O)C=C[C@]4(C)[C@H]3[C@@H](O)C[C@@]12C [deflazacort, (11β,16β)-21-(acetyloxy)-11-hydroxy-2′-methyl-5′H-pregna-1,4-dieno[17,16-d]oxazole-3,20-dione] |  |  |  |  |  |  |  |  |  |  | improves muscle strength |
